Results on 18 compounds are retold here after patent US10738056B2 (Aduro BioTech, Inc., priority 2017, dated 2020).

Test [1] deals with cGAS/STING pathway in THP1 cells. In words: THP1 cell-based cGAS/STING pathway activity assay (IRF-3-linked luciferase reporter). As to conditions: Homo sapiens, THP-1. A digest of the protocol: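 THP1 cells carrying an IRF-3-driven luciferase reporter were read across a range of compound concentrations, and IC50 values were derived from these concentration responses; the assay upper limit was 100 μM.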
On the technique in general: A reporter such as luciferase makes a cellular process visible.

Test [2] concerns RANTES/CCL5 secretion by Trex1-KO BMM. In words: Inhibition of RANTES/CCL5 secretion by Trex1-KO bone marrow-derived macrophages. The class given is cell-based, mice. The arrangement: key to BMM IC50 R (RANTES): A: an IC50 value less than 5 μM; B: an IC50 value between 5 and 20 μM; where an IC50 value could not be calculated from the data. As to conditions: RANTES secretion; for IC50: Mus musculus, Macrophage, read-out: BMM IC50 R (RANTES). How it is done:
(§1) A cellular assay can be used to asses the compounds of the invention for their ability to inhibit cytokine production. Bone marrow macrophages harvested from mice can be used to determine response as a function of compound concentration.
(§2) The inhibition of secreted cytokine was measured in bone marrow-derived macrophages (BMMs) from diseased mice to evaluate the potency of compounds of the invention as described herein. […] To derive bone marrow macrophages, marrow extracted from the femurs and tibias were harvested from Trex1-KO mice was cultured in growth media supplemented with macrophage colony-stimulating factor (M-CSF). Differentiated BMM were harvested and frozen for subsequent experimentation. For treatment with compound C1089 (see Example 13), a frozen stock of Trex1-KO BMM was thawed and 1×10^5 cells were plated in 96 well format. BMMs were treated with a dilution series of C1089 and incubated overnight at 37° C. 5% CO2, at which point cellular supernatants were harvested and stored at −80° C. for subsequent analysis. The media used for this dilution series was without FBS. Remaining cells were evaluated for viability using Cell Titer Glo 2.0 kit according to the manufacturer instructions. BMM supernatants were evaluated for the secreted cytokine […] (RANTES/CCL5) or for secreted cytokine monocyte chemoattractant protein 1 (MCP-1/CCL2) using cytometric bead array mouse Flex Set kits (BD Biosciences). Cytokine concentration was calculated from a standard curve and normalized to vehicle (DMSO) treated cells.

Test [3] deals with MCP-1/CCL2 secretion by Trex1-KO BMM. In words: Inhibition of MCP-1/CCL2 secretion by Trex1-KO bone marrow-derived macrophages. The test is classed as cell-based, mice. The arrangement: key to BMM IC50 M (MCP-1): A: an IC50 value less than 5 μM; B: an IC50 value between 5 and 20 μM; where an IC50 value could not be calculated from the data. The settings on record: MCP-1 secretion; for IC50: Mus musculus, Macrophage, read-out: BMM IC50 M (MCP-1). How it is done:
as §1, §2

Test [4] concerns the target Human cGAS amino acids 155-522 (Homo sapiens (Human), UniProt Q8N884). In words: cGAS biochemical activity assay (ATP remaining, Kinase-Glo Max luminescence). The settings on record: human cGAS 155-522, ATP remaining (Kinase-Glo Max); read-out: cGAS IC50. For orientation: Kinase-Glo measures the ATP left after a reaction by luminescence.

By IC50 is commonly meant the concentration needed to halve the response being measured.

Sequence of Human cGAS amino acids 155-522 (Q8N884 157-522): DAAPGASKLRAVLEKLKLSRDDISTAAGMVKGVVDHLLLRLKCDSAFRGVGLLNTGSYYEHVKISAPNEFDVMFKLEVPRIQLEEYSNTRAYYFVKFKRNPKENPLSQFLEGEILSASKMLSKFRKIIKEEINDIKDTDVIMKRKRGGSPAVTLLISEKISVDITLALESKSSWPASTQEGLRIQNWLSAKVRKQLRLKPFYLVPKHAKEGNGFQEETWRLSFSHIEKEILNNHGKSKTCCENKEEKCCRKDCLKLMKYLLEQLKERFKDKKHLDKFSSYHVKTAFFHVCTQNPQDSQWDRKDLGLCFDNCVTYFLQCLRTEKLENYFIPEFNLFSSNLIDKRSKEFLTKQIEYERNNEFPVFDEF

Consider `COc1cc(Cl)cc2oc(-c3c(C)[nH]c4c(-c5ccccc5)c(C#N)nn4c3=O)nc12` [Compound C1160, 6-(6-chloro-4-methoxybenzo[d]oxazol-2-yl)-5-methyl-7-oxo-3-phenyl-4,7-dihydropyrazolo[1,5-a]pyrimidine-2-carbonitrile], for which the IC50 is > 100 µM in test [1] and < 20 µM in test [4]. Further, the “BMM IC50 R (RANTES)” value in test [2] is “C”. The “BMM IC50 M (MCP-1)” value in test [3] is given as “C”.
As for `COCCOCc1[nH]c2c(-c3ccccc3)c(C(F)(F)F)nn2c(=O)c1-c1nc2c(OC)cccc2o1` [Compound C1151, 6-(4-methoxybenzo[d]oxazol-2-yl)-5-((2-methoxyethoxy)methyl)-3-phenyl-2-(trifluoromethyl)pyrazolo[1,5-a]pyrimidin-7(4H)-one], the IC50 in test [1] is < 20 µM; in test [2] it was 5 to 20 µM; in test [4] it was < 20 µM. Further, in test [3], the “BMM IC50 M (MCP-1)” value is “C”.
Consider `COc1cccc2oc(-c3c(COCc4ccccc4)[nH]c4c(-c5ccccc5)c(C(F)(F)F)nn4c3=O)nc12` [Compound C1099, 5-((benzyloxy)methyl)-6-(4-methoxybenzo[d]oxazol-2-yl)-3-phenyl-2-(trifluoromethyl)pyrazolo[1,5-a]pyrimidin-7(4H)-one], for which the IC50 in test [1] and in test [4] was < 20 µM each time. Besides, the “BMM IC50 R (RANTES)” value in test [2] is “C”. In addition, the “BMM IC50 M (MCP-1)” value in test [3] is “C”.
On to `COc1cc(C)cc2oc(-c3c(C)[nH]c4c(-c5ccccc5)c(C(F)(F)F)nn4c3=O)nc12` [Compound C1098, 6-(4-methoxy-6-methylbenzo[d]oxazol-2-yl)-5-methyl-3-phenyl-2-(trifluoromethyl)pyrazolo[1,5-a]pyrimidin-7(4H)-one], for which the half-inhibitory concentration (IC50) was < 20 µM in test [1], < 5 µM in test [2], 5 to 20 µM in test [3] and < 20 µM in test [4].
In the case of `COc1cccc2oc(-c3c(COC4CCCCO4)[nH]c4c(-c5ccccc5)c(C(F)(F)F)nn4c3=O)nc12` (stereo not drawn) [Compound C1134, 6-(4-methoxybenzo[d]oxazol-2-yl)-3-phenyl-5-(((tetrahydro-2H-pyran-2-yl)oxy)methyl)-2-(trifluoromethyl)pyrazolo[1,5-a]pyrimidin-7(4H)-one], the IC50 in test [1] is < 20 µM; in test [3], 5 to 20 µM; in test [4], < 20 µM. Further, in test [2], the “BMM IC50 R (RANTES)” value is “C”.
As to `COc1cccc2oc(-c3c(CCC(=O)O)[nH]c4c(-c5ccccc5)c(C(F)(F)F)nn4c3=O)nc12` [Compound C1173, 3-(6-(4-methoxybenzo[d]oxazol-2-yl)-7-oxo-3-phenyl-2-(trifluoromethyl)-4,7-dihydropyrazolo[1,5-a]pyrimidin-5-yl)propanoic acid], the values for the IC50 in test [1] and in test [4] were 20 to 100 µM and < 20 µM, respectively. For the same compound, in test [2], the “BMM IC50 R (RANTES)” value was “C”. Moreover, in test [3], the “BMM IC50 M (MCP-1)” value is “C”.
Turning to `COc1cccc2oc(-c3c(CSC)[nH]c4c(-c5ccccc5)c(C(F)(F)F)nn4c3=O)nc12` [Compound C1136, 6-(4-methoxybenzo[d]oxazol-2-yl)-5-((methylthio)methyl)-3-phenyl-2-(trifluoromethyl)pyrazolo[1,5-a]pyrimidin-7(4H)-one], the figures for the half-maximal inhibitory concentration (IC50) in test [1], in test [3] and in test [4] were < 20 µM, 5 to 20 µM and < 20 µM, respectively. The “BMM IC50 R (RANTES)” value in test [2] was “C”.
For `Cc1[nH]c2c(-c3ccccc3)c(C(F)(F)F)nn2c(=O)c1-c1nnc(C#N)o1` [Compound D1071, 5-(5-methyl-7-oxo-3-phenyl-2-(trifluoromethyl)-4,7-dihydropyrazolo[1,5-a]pyrimidin-6-yl)-1,3,4-oxadiazole-2-carbonitrile], the IC50 in test [1] was < 20 µM; in test [2], < 5 µM; in test [3], 5 to 20 µM; in test [4] it was < 20 µM.
Turning to `COc1cc(Cl)cc2oc(-c3c(C)[nH]c4c(-c5ccccc5)c(C(F)(F)F)nn4c3=O)nc12` [Compound C1105, 6-(6-chloro-4-methoxybenzo[d]oxazol-2-yl)-5-methyl-3-phenyl-2-(trifluoromethyl)pyrazolo[1,5-a]pyrimidin-7(4H)-one], the IC50 in test [1] is < 20 µM; in test [2], < 5 µM; in test [3], 5 to 20 µM; in test [4], < 20 µM.
Regarding `COc1cccc2oc(-c3c(C(F)(F)F)[nH]c4c(-c5ccccc5)c(C#N)nn4c3=O)nc12` [Compound C1118, 6-(4-methoxybenzo[d]oxazol-2-yl)-7-oxo-3-phenyl-5-(trifluoromethyl)-4,7-dihydropyrazolo[1,5-a]pyrimidine-2-carbonitrile], the half-inhibitory concentration (IC50) in test [1] was < 20 µM; in test [2], < 5 µM; in test [4], < 20 µM. Moreover, in test [3], the “BMM IC50 M (MCP-1)” value is recorded as “C”.
`COc1c(Br)ccc2oc(-c3c(C)[nH]c4c(-c5ccccc5)c(C(F)(F)F)nn4c3=O)nc12` [Compound C1082, 6-(5-bromo-4-methoxybenzo[d]oxazol-2-yl)-5-methyl-3-phenyl-2-(trifluoromethyl)pyrazolo[1,5-a]pyrimidin-7(4H)-one]: the IC50 in test [1] and in test [4] was < 20 µM each time. For the same compound, the “BMM IC50 R (RANTES)” value in test [2] was “C”. In test [3], the “BMM IC50 M (MCP-1)” value is “C”.
In the case of `COc1cc(Cl)cc(NC(=O)c2c(C)[nH]c3c(-c4ccccc4)c(C(F)(F)F)nn3c2=O)c1` [Compound A1134, N-(3-chloro-5-methoxyphenyl)-5-methyl-7-oxo-3-phenyl-2-(trifluoromethyl)-4,7-dihydropyrazolo[1,5-a]pyrimidine-6-carboxamide], the half-inhibitory concentration (IC50) in test [1] was < 20 µM; in test [2], < 5 µM; in test [3], < 5 µM; in test [4] it was < 20 µM.
For `COCc1[nH]c2c(-c3ccccc3)c(C#N)nn2c(=O)c1-c1nc2c(OC)cccc2o1` [Compound C1139, 6-(4-methoxybenzo[d]oxazol-2-yl)-5-(methoxymethyl)-7-oxo-3-phenyl-4,7-dihydropyrazolo[1,5-a]pyrimidine-2-carbonitrile], the half-inhibitory concentration (IC50) was < 20 µM in test [1], 5 to 20 µM in test [2], 5 to 20 µM in test [3] and < 20 µM in test [4].
For the compound `Cc1[nH]c2c(-c3ccccc3)c(C(F)(F)F)nn2c(=O)c1-c1nc2c(OCc3ccccc3)cccc2o1` [Compound C1073, 6-(4-(benzyloxy)benzo[d]oxazol-2-yl)-5-methyl-3-phenyl-2-(trifluoromethyl)pyrazolo[1,5-a]pyrimidin-7(4H)-one], the IC50 in test [1] and in test [4] was < 20 µM throughout. The “BMM IC50 R (RANTES)” value in test [2] was “C”. In test [3], the “BMM IC50 M (MCP-1)” value was “C”.
Consider `COc1ccc(N)c2oc(-c3c(C)[nH]c4c(-c5ccccc5)c(C(F)(F)F)nn4c3=O)nc12` [Compound C1154, 6-(7-amino-4-methoxybenzo[d]oxazol-2-yl)-5-methyl-3-phenyl-2-(trifluoromethyl)pyrazolo[1,5-a]pyrimidin-7(4H)-one], for which the IC50 in test [1] and in test [4] was < 20 µM in each case. In addition, in test [2], the “BMM IC50 R (RANTES)” value is “C”. Moreover, the “BMM IC50 M (MCP-1)” value in test [3] is given as “C”.
With `Cc1[nH]c2c(-c3ccccc3)c(C(F)(F)F)nn2c(=O)c1C(=O)Nc1cc(Br)cc(CN(C)C)c1` [Compound A1139, N-(3-bromo-5-((dimethylamino)methyl)phenyl)-5-methyl-7-oxo-3-phenyl-2-(trifluoromethyl)-4,7-dihydropyrazolo[1,5-a]pyrimidine-6-carboxamide], the IC50 in test [1] and in test [4] was < 20 µM in each case. Further, the “BMM IC50 R (RANTES)” value in test [2] was “C”. Besides, in test [3], the “BMM IC50 M (MCP-1)” value is recorded as “C”.
With `Cc1[nH]c2c(-c3ccccc3)c(C(F)(F)F)nn2c(=O)c1-c1nc2c(C(N)=O)cccc2o1` [Compound C1074, 2-(5-methyl-7-oxo-3-phenyl-2-(trifluoromethyl)-4,7-dihydropyrazolo[1,5-a]pyrimidin-6-yl)benzo[d]oxazole-4-carboxamide], the concentration for half-maximal inhibition (IC50) in test [1] is > 100 µM; in test [4], 20 to 250 µM. The “BMM IC50 R (RANTES)” value in test [2] is reported as “C”. In addition, in test [3], the “BMM IC50 M (MCP-1)” value is “C”.
With `COCc1[nH]c2c(-c3ccccc3)c(C#N)nn2c(=O)c1-c1nc2c(OC)cc(Cl)cc2o1` [Compound C1145, 6-(6-chloro-4-methoxybenzo[d]oxazol-2-yl)-5-(methoxymethyl)-7-oxo-3-phenyl-4,7-dihydropyrazolo[1,5-a]pyrimidine-2-carbonitrile], the IC50 in test [1] and in test [4] was < 20 µM in each case. The “BMM IC50 R (RANTES)” value in test [2] was “C”. Moreover, the “BMM IC50 M (MCP-1)” value in test [3] is given as “C”.
